Legend:
cocklebur = assay: Test B pre/postemergence cocklebur; format: in vivo, Xanthium strumarium
Summary of the method: (§1)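 Response is a visual 0-to-10 score relative to untreated plants, where 0 means no effect and 10 means complete control, taken twelve to sixteen days after application. Treatments went onto soil at planting and onto foliage of 1- to 4-leaf plants, using a surfactant-containing non-phytotoxic solvent.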

surinam grass = assay: Test B pre/postemergence surinam grass; format: in vivo, Brachiaria decumbens
Summary of the method: as §1

wheat = assay: Test B pre/postemergence wheat; format: in vivo, Triticum aestivum
Summary of the method: as §1

smallflower flatsedge = assay: Test B flood test smallflower flatsedge; format: in vivo, Cyperus difformis
Summary of the method: (§2)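 Plants were grown to the 2-leaf stage before treatment with test chemical, then held in a greenhouse for twelve to sixteen days. Injury was visually rated against untreated controls on a 0–10 scale, where 0 is no effect and 10 is complete control.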

giant foxtail = assay: Test B pre/postemergence giant foxtail; format: in vivo, Setaria faberii
Summary of the method: as §1

bamyardgrass = assay: Test B flood test barnyardgrass; format: in vivo, Echinochloa crus-galli
Summary of the method: as §2

soybean = assay: Test B pre/postemergence soybean; format: in vivo, Glycine max
Summary of the method: as §1

morningglory = assay: Test B pre/postemergence morningglory; format: in vivo, Ipomoea hederacea
Summary of the method: as §1

velvetleaf = assay: Test B pre/postemergence velvetleaf; format: in vivo, Abutilon theophrasti
Summary of the method: as §1

wild oat = assay: Test B pre/postemergence wild oat; format: in vivo, Avena fatua
Summary of the method: as §1

duck salad = assay: Test B flood test duck salad; format: in vivo, Heteranthera limosa
Summary of the method: as §2

bedstraw = assay: Test B pre/postemergence bedstraw; format: in vivo, Galium aparine; conditions: Postemergence
Summary of the method: as §1

blackgrass = assay: Test B pre/postemergence blackgrass; format: in vivo, Alopecurus myosuroides
Summary of the method: as §1

crabgrass = assay: Test B pre/postemergence crabgrass; format: in vivo, Digitaria sanguinalis
Summary of the method: as §1

corn = assay: Test B pre/postemergence corn; format: in vivo, Zea mays
Summary of the method: as §1

rice = assay: Test B flood test rice; format: in vivo, Oryza sativa
Summary of the method: as §2

purple nutsedge = assay: Test B pre/postemergence purple nutsedge; format: in vivo, Cyperus rotundus
Summary of the method: as §1

[1] = Postemergence, Rate 250 g/ha, scale 0 to 10
[2] = Postemergence, Rate 500 g/ha, scale of 0 to 10 where 0 is no effect and 10 is complete control
[3] = Preemergence, Rate 62 g/ha, scale 0 to 10 (0 no effect, 10 complete control)
[4] = Preemergence, Rate 125 g/ha, scale of 0 to 10 where 0 is no effect and 10 is complete control
[5] = Preemergence, Rate 250 g/ha, scale 0 to 10, 0 is no effect, 10 is complete control
[6] = Preemergence, Rate 500 g/ha, scale 0 to 10, 0 is no effect, 10 is complete control
[7] = Rate 62 g/ha, Postemergence, scale of 0 to 10 where 0 is no effect and 10 is complete control
[8] = Rate 125 g/ha, Postemergence, scale 0 to 10, 0 is no effect, 10 is complete control
[9] = Postemergence block (flood test species), Rate 250 g/ha, scale 0 to 10
[10] = Postemergence section (flood test species), Rate 500 g/ha, scale of 0 to 10 where 0 is no effect and 10 is complete control
[11] = Rate 125 g/ha, Postemergence section (flood test species), scale 0 to 10, 0 is no effect, 10 is complete control
[12] = Rate 62 g/ha, Postemergence (flood test species), scale of 0 to 10 where 0 is no effect and 10 is complete control

In the case of `C=CC[Si](C)(C)Cn1c(=O)on(C(=O)N(c2ccc(F)cc2)C(C)C)c1=O` [Compound 426], the “Cocklebur plant response rating” value (cocklebur; [1]) is reported as 0, the “Cocklebur plant response rating” value (cocklebur; [2]) is reported as 0 and the “Plant response rating, Cocklebur” value (cocklebur; [3]) is reported as 0. For the same compound, the “Plant response rating, Cocklebur” value (cocklebur; [4]) was 0, the “Cocklebur plant response rating” value (cocklebur; [5]) was 0 and the “Cocklebur plant response rating” value (cocklebur; [6]) was 0. For the same compound, the “Cocklebur plant response rating” value (cocklebur; [7]) was 0, the “Cocklebur plant response rating” value (cocklebur; [8]) was 0 and the “B. signalgrass plant response rating” value (surinam grass; Postemergence, Rate 250 g/ha, scale 0 to 10, 0 no effect, 10 complete control) was 7. The “B. signalgrass plant response rating” value (surinam grass; [2]) was 8, the “Plant response rating, B. signalgrass” value (surinam grass; [3]) was 4 and the “Plant response rating, B. signalgrass” value (surinam grass; [4]) was 4. For the same compound, the “B. signalgrass plant response rating” value (surinam grass; [5]) was 6, the “B. signalgrass plant response rating” value (surinam grass; Preemergence, Rate 500 g/ha, scale of 0 to 10 where 0 is no effect and 10 is complete control) was 8 and the “B. signalgrass plant response rating” value (surinam grass; [7]) was 2. For the same compound, the “B. signalgrass plant response rating” value (surinam grass; [8]) was 5, the “Wheat plant response rating” value (wheat; [1]) was 0 and the “Wheat plant response rating” value (wheat; [2]) was 2. The “Plant response rating, Wheat” value (wheat; [3]) was 0, the “Plant response rating, Wheat” value (wheat; [4]) was 0 and the “Wheat plant response rating” value (wheat; [5]) was 2. The “Wheat plant response rating” value (wheat; [6]) was 6, the “Wheat plant response rating” value (wheat; [8]) was 0 and the “S. Flatsedge plant response rating” value (smallflower flatsedge; [9]) was 0. For the same compound, the “S. Flatsedge plant response rating” value (smallflower flatsedge; [10]) was 0, the “S. Flatsedge plant response rating” value (smallflower flatsedge; [11]) was 0 and the “Giant foxtail plant response rating” value (giant foxtail; [1]) was 9. The “Giant foxtail plant response rating” value (giant foxtail; [2]) was 9, the “Plant response rating, Giant foxtail” value (giant foxtail; [3]) was 9 and the “Plant response rating, Giant foxtail” value (giant foxtail; [4]) was 9. For the same compound, the “Giant foxtail plant response rating” value (giant foxtail; [5]) was 10, the “Giant foxtail plant response rating” value (giant foxtail; [6]) was 10 and the “Giant foxtail plant response rating” value (giant foxtail; [7]) was 3. For the same compound, the “Giant foxtail plant response rating” value (giant foxtail; [8]) was 7, the “Barnyardgrass plant response rating” value (bamyardgrass; [9]) was 0 and the “Barnyardgrass plant response rating” value (bamyardgrass; [10]) was 0. The “Barnyardgrass plant response rating” value (bamyardgrass; [12]) was 0, the “Barnyardgrass plant response rating” value (bamyardgrass; [11]) was 0 and the “Soybean plant response rating” value (soybean; [1]) was 6. For the same compound, the “Soybean plant response rating” value (soybean; [2]) was 7, the “Plant response rating, Soybean” value (soybean; [3]) was 0 and the “Plant response rating, Soybean” value (soybean; [4]) was 0. The “Soybean plant response rating” value (soybean; [5]) was 0, the “Soybean plant response rating” value (soybean; [6]) was 0 and the “Soybean plant response rating” value (soybean; [8]) was 4. The “Morningglory plant response rating” value (morningglory; [1]) was 9, the “Morningglory plant response rating” value (morningglory; [2]) was 9 and the “Plant response rating, Morningglory” value (morningglory; [3]) was 0. For the same compound, the “Plant response rating, Morningglory” value (morningglory; [4]) was 0, the “Morningglory plant response rating” value (morningglory; [5]) was 0 and the “Morningglory plant response rating” value (morningglory; [6]) was 6. For the same compound, the “Morningglory plant response rating” value (morningglory; [8]) was 7, the “Velvetleaf plant response rating” value (velvetleaf; [1]) was 1 and the “Velvetleaf plant response rating” value (velvetleaf; [2]) was 2. For the same compound, the “Plant response rating, Velvetleaf” value (velvetleaf; [3]) was 0, the “Plant response rating, Velvetleaf” value (velvetleaf; [4]) was 2 and the “Velvetleaf plant response rating” value (velvetleaf; [5]) was 2. The “Velvetleaf plant response rating” value (velvetleaf; [6]) was 5, the “Velvetleaf plant response rating” value (velvetleaf; [8]) was 0 and the “Wild oats plant response rating” value (wild oat; [1]) was 2. The “Wild oats plant response rating” value (wild oat; [2]) was 2, the “Plant response rating, Wild oats” value (wild oat; [3]) was 2 and the “Plant response rating, Wild oats” value (wild oat; [4]) was 7. The “Wild oats plant response rating” value (wild oat; [5]) was 8, the “Wild oats plant response rating” value (wild oat; [6]) was 10 and the “Wild oats plant response rating” value (wild oat; [8]) was 0. For the same compound, the “Ducksalad plant response rating” value (duck salad; [9]) was 0, the “Ducksalad plant response rating” value (duck salad; [10]) was 0 and the “Ducksalad plant response rating” value (duck salad; [12]) was 0. The “Ducksalad plant response rating” value (duck salad; [11]) was 0, the “Bedstraw plant response rating” value (bedstraw; Rate 250 g/ha, scale 0 to 10) was 9 and the “Bedstraw plant response rating” value (bedstraw; Rate 500 g/ha, scale of 0 to 10 where 0 is no effect and 10 is complete control) was 9. For the same compound, the “Blackgrass plant response rating” value (blackgrass; [1]) was 8, the “Blackgrass plant response rating” value (blackgrass; [2]) was 8 and the “Plant response rating, Blackgrass” value (blackgrass; [3]) was 4. The “Plant response rating, Blackgrass” value (blackgrass; [4]) was 6, the “Blackgrass plant response rating” value (blackgrass; [5]) was 9 and the “Blackgrass plant response rating” value (blackgrass; [6]) was 9. For the same compound, the “Blackgrass plant response rating” value (blackgrass; [7]) was 3, the “Blackgrass plant response rating” value (blackgrass; [8]) was 6 and the “Crabgrass plant response rating” value (crabgrass; [1]) was 9. For the same compound, the “Crabgrass plant response rating” value (crabgrass; [2]) was 9, the “Plant response rating, Crabgrass” value (crabgrass; [3]) was 8 and the “Plant response rating, Crabgrass” value (crabgrass; [4]) was 9. The “Crabgrass plant response rating” value (crabgrass; [5]) was 10, the “Crabgrass plant response rating” value (crabgrass; [6]) was 10 and the “Crabgrass plant response rating” value (crabgrass; [7]) was 1. The “Crabgrass plant response rating” value (crabgrass; [8]) was 6, the “Corn plant response rating” value (corn; [1]) was 2 and the “Corn plant response rating” value (corn; [2]) was 4. The “Plant response rating, Corn” value (corn; [3]) was 0, the “Plant response rating, Corn” value (corn; [4]) was 0 and the “Corn plant response rating” value (corn; [5]) was 0. For the same compound, the “Corn plant response rating” value (corn; [6]) was 6, the “Corn plant response rating” value (corn; [7]) was 0 and the “Corn plant response rating” value (corn; [8]) was 0. The “Rice plant response rating” value (rice; [9]) was 0, the “Rice plant response rating” value (rice; [10]) was 0 and the “Rice plant response rating” value (rice; [11]) was 0. For the same compound, the “Nutsedge plant response rating” value (purple nutsedge; [1]) was 0, the “Nutsedge plant response rating” value (purple nutsedge; [2]) was 3 and the “Plant response rating, Nutsedge” value (purple nutsedge; [3]) was 0. For the same compound, the “Plant response rating, Nutsedge” value (purple nutsedge; [4]) was 0, the “Nutsedge plant response rating” value (purple nutsedge; [5]) was 0 and the “Nutsedge plant response rating” value (purple nutsedge; [6]) was 0. For the same compound, the “Nutsedge plant response rating” value (purple nutsedge; [8]) was 0.

Reference: patent publication US6737383B1, “Herbicidal oxadiazolidines” (priority 1999, dated 2004)
